Assay [1] has as its system lymphocyte egress from the thymus. Put plainly: Effects on lymphocytes in mice: FACS of thymus T cells. The class given is in vivo, mice (F1 hybrids of 129/B6 strain). As to conditions: administered in drinking water; FIGS. 1-3. How it is done: Compounds were administered by oral gavage or in drinking water. For oral dosing experiments, compounds were resuspended from crystals at 10 mg/ml in vehicle (e.g., water). Mice (F1 hybrids of 129/B6 strain) were gavaged with a single 100 mg/kg dose of compound (equivalent to 100 mpk of the free base for each compound) or a vehicle-only control, and returned to their cages. Mice were anesthetized using isofluorane eighteen hours after dosing and tissues were collected for analysis as described below. For drinking water studies, compounds were dissolved at 50 mg/L in acidified water (pH=2.8) containing 10 g/L glucose. The mice were allowed free access to compound-containing water (or glucose solution as a control) for 72 hours. At the end of 72 hours, tissues were collected for analysis. Flow cytometry (FACS) measurements were obtained as follows. Twenty five μl whole blood was lysed by hyoptonic shock, washed once in 2 ml FACS wash buffer (FWB: PBS/0.1% BSA/0.1% NaN3/2 mM EDTA) and stained for 30 minutes at 4° C. in the dark with a combination of fluorochrome-conjugated antibodies diluted in 50 μl FWB. After staining, the cells were washed once with 2 ml FWB and resuspended in 300 μl FWB for acquisition. […] Samples were analyzed using a FACSCalibur flow cytometer and CellQuest Pro software (Becton Dickinson Immunocytometry Systems, San Jose, Calif.). […]

The test system of a further assay is circulating lymphocytes. Kind of assay: Effects on lymphocytes in mice: whole blood counts (CBC). The assay is classed as in vivo, mice (F1 hybrids of 129/B6 strain). How it is done: Unless otherwise indicated, the term “circulating lymphocyte reduction factor” or “CLRF” means the decrease in the number of circulating lymphocytes in mice caused by oral administration of a single dose of a compound at 100 mg/kg, as determined by the method described in the Examples, below. Compounds were administered by oral gavage or in drinking water. For oral dosing experiments, compounds were resuspended from crystals at 10 mg/ml in vehicle (e.g., water). Mice (F1 hybrids of 129/B6 strain) were gavaged with a single 100 mg/kg dose of compound (equivalent to 100 mpk of the free base for each compound) or a vehicle-only control, and returned to their cages. Mice were anesthetized using isofluorane eighteen hours after dosing and tissues were collected for analysis as described below. For drinking water studies, compounds were dissolved at 50 mg/L in acidified water (pH=2.8) containing 10 g/L glucose. The mice were allowed free access to compound-containing water (or glucose solution as a control) for 72 hours. At the end of 72 hours, tissues were collected for analysis. CBC measurements were obtained as follows. Mice were anesthetized with isofluorane and blood was collected from the retroorbital plexus into EDTA blood collection tubes (Capiject-MQK, Terumo Medical Corp., Elkton, Md.). […]

Another assay has as its target T1, S1P lyase (Mus musculus, UniProt Q8R0X7).
T1 construct: host or cells: mice (in vivo)
T1 sequence (Q8R0X7 1-568): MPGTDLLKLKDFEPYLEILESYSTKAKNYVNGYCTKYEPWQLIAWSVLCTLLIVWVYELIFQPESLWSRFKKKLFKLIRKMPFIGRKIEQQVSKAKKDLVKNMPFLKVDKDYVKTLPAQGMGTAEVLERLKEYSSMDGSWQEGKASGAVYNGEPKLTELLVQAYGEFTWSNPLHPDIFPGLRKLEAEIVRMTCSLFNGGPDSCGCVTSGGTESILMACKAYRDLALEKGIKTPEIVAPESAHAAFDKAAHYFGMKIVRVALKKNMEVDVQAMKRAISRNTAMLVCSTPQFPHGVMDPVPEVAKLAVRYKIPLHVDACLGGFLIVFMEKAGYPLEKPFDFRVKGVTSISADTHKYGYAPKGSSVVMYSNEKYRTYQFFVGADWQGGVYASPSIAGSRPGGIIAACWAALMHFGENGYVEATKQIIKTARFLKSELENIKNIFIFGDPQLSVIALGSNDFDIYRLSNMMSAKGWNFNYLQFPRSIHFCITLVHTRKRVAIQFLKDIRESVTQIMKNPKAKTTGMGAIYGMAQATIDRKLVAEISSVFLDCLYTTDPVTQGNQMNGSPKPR
To be noted: when administered to mice; Schwab et al. 2005; cited from earlier work.

For assay [2], the system named is lymphocytes / mature T cells in the thymus. To be noted: administration to rats and mice; cited from earlier work.
Another assay deals with immunological effects. To be noted: studies in humans; Thuvander 1994, Houben 1992; cited from earlier work.

As to `CC(=O)c1nc(C(O)C(O)C(O)CO)c[nH]1` (stereo not shown) [THI, 2-acetyl-4-tetrahydroxybutylimidazole], the “effect on lymphocyte egress from the thymus” value in assay [1] is reported as “diminished lymphocyte egress from the thymus”. Moreover, the “effect on circulating lymphocytes” value in the assay with circulating lymphocytes is given as “capable of reducing circulating lymphocytes in mice”. Besides, the S1P lyase activity entry at S1P lyase is on record as “inhibits S1P lyase activity”. Besides, in assay [2], the lymphopenia result is on record as “induces lymphopenia” and the “mature T cells in the thymus” value is given as “causes the accumulation of mature T cells in the thymus”. Also, the immunological effects result in the assay with immunological effects is “no immunological effects”.
As for `CC(=O)c1nc(C)c([C@@H](O)[C@H](O)[C@H](O)CO)s1` [Compound 2, 1-(4-methyl-5-((1S,2R,3R)-1,2,3,4-tetrahydroxybutyl)thiazol-2-yl)ethanone], the “effect on circulating lymphocytes” value with circulating lymphocytes was “little or no effect on circulating lymphocytes”.

Values taken from patent publication US20070208063A1, “Imidazole-based compounds, compositions comprising them and methods of their use” (priority 2006, published 2007).
